Measurements as given in ChEMBL document CHEMBL4765377, “Design, synthesis, and evaluation of amphiphilic sofalcone derivatives as potent Gram-positive antibacterial agents” (Eur J Med Chem, 2020).
In brackets after ≈: the same amount, converted by molar mass. Activity calls are given as the source filed them. The rule behind the calls is not given here.

Tests used:
Staphylococcus aureus [1] = experiment: Antibacterial activity against methicillin-resistant Staphylococcus aureus NCTC10442 assessed as reduction in bacterial growth after 24 hrs by CLSI based broth micro dilution method; format: functional
Staphylococcus aureus [2] = experiment: Antibacterial activity against Staphylococcus aureus ATCC 29213 assessed as reduction in bacterial growth at 0.5 time of MIC after 14 days passage by CLSI based broth micro dilution method; format: functional, organism-based; details: time 14.0 day
[3] = Cytotoxicity against human MDA-MB-231 cells assessed as viability at 12.5 ug/ml after 24 hrs by CCK8 assay relative to control; format: cell-based; details: at 12.5 µg/mL, read-out: Activity
[4] = Hemolytic activity in rabbit RBC after 60 mins; format: ADME, cell-based, Oryctolagus cuniculus, Erythrocyte; details: rabbit red blood cells (erythrocytes)
[5] = Cytotoxicity against mouse NCTC clone 929 cells assessed as viability at 6.25 ug/ml after 24 hrs by CCK8 assay relative to control; format: cell-based; details: at 6.25 µg/mL, read-out: Activity
Staphylococcus aureus [6] = experiment: Antibacterial activity against Staphylococcus aureus ATCC 29213 assessed as reduction in bacterial growth after 24 hrs in presence of calcium ion by CLSI based broth micro dilution method; format: functional
Staphylococcus aureus [7] = experiment: Bactericidal activity against Staphylococcus aureus ATCC 29213 assessed as reduction in bacterial load at 4 time of MIC concentration preincubated for 60 mins followed by compound washout further subculturing and measured after 24 hrs by time-kill assay; format: functional; details: 1 h
[8] = Cytotoxicity against human MDA-MB-231 cells assessed as viability at 25 ug/ml after 24 hrs by CCK8 assay relative to control; format: cell-based; details: at 25 µg/mL, read-out: Activity
Staphylococcus aureus [9] = experiment: Antibacterial activity against Staphylococcus aureus ATCC 29213 infected in C57BL6 mouse assessed as reduction in bacterial load at 6.56 mmol/L, administered topically at 2 hrs interval for 3 days; format: functional; details: time 3 day
Cell membrane [10] = experiment: Disruption of bacterial cell membrane in Staphylococcus aureus ATCC 29213 measured for 1 hr by SYTOX green staining based assay
Staphylococcus aureus [11] = experiment: Antibacterial activity against methicillin-resistant Staphylococcus aureus NCTC10442 assessed as reduction in bacterial growth after 24 hrs in presence of sodium ion by CLSI based broth micro dilution method; format: functional
Escherichia coli [12] = experiment: Antibacterial activity against Escherichia coli ATCC 25922 assessed as reduction in bacterial growth after 24 hrs in presence of calcium ion by CLSI based broth micro dilution method; format: functional
[13] = Cytotoxicity against mouse NCTC clone 929 cells assessed as viability at 12.5 ug/ml after 24 hrs by CCK8 assay relative to control; format: cell-based; details: at 12.5 µg/mL, read-out: Activity
Staphylococcus aureus [14] = experiment: Antibacterial activity against Staphylococcus aureus ATCC 29213 assessed as reduction in bacterial growth after 24 hrs in presence of sodium ion by CLSI based broth micro dilution method; format: functional
Escherichia coli [15] = experiment: Antibacterial activity against Escherichia coli ATCC 25922 assessed as reduction in bacterial growth after 24 hrs by CLSI based broth micro dilution method; format: functional
Staphylococcus aureus [16] = experiment: Antibacterial activity against methicillin-resistant Staphylococcus aureus NCTC10442 assessed as reduction in bacterial growth after 24 hrs in presence of calcium ion by CLSI based broth micro dilution method; format: functional
Escherichia coli [17] = experiment: Antibacterial activity against Escherichia coli ATCC 25922 assessed as reduction in bacterial growth after 24 hrs in presence of potassium ion by CLSI based broth micro dilution method; format: functional
Escherichia coli [18] = experiment: Antibacterial activity against Escherichia coli ATCC 25922 assessed as reduction in bacterial growth after 24 hrs in presence of sodium ion by CLSI based broth micro dilution method; format: functional
[19] = Cytotoxicity against mouse NCTC clone 929 cells assessed as viability at 25 ug/ml after 24 hrs by CCK8 assay relative to control; format: cell-based; details: at 25 µg/mL, read-out: Activity
Staphylococcus aureus [20] = experiment: Bactericidal activity against Staphylococcus aureus ATCC 29213 assessed as reduction in bacterial load at 2 time of MIC concentration preincubated for 120 mins followed by compound washout further subculturing and measured after 24 hrs by time-kill assay; format: functional; details: 2 h
Staphylococcus aureus [21] = experiment: Bactericidal activity against Staphylococcus aureus ATCC 29213 assessed as reduction in bacterial load at 8 time of MIC concentration preincubated for 30 mins followed by compound washout further subculturing and measured after 24 hrs by time-kill assay; format: functional; details: 0.5 h
[22] = Cytotoxicity against mouse corneal fibroblast cells assessed as viability at 12.5 ug/ml after 24 hrs by CCK8 assay relative to control; format: cell-based; details: at 12.5 µg/mL, read-out: Activity
Staphylococcus aureus [23] = experiment: Antibacterial activity against methicillin-resistant Staphylococcus aureus N315 assessed as reduction in bacterial growth after 24 hrs in presence of calcium ion by CLSI based broth micro dilution method; format: functional
Staphylococcus aureus [24] = experiment: Antibacterial activity against Staphylococcus aureus ATCC 29213 assessed as reduction in bacterial growth after 24 hrs in presence of magnesium ion by CLSI based broth micro dilution method; format: functional
Staphylococcus aureus [25] = experiment: Antibacterial activity against methicillin-resistant Staphylococcus aureus NCTC10442 assessed as reduction in bacterial growth after 24 hrs in presence of potassium ion by CLSI based broth micro dilution method; format: functional
Staphylococcus aureus [26] = experiment: Antibacterial activity against methicillin-resistant Staphylococcus aureus N315 assessed as reduction in bacterial growth after 24 hrs in presence of potassium ion by CLSI based broth micro dilution method; format: functional
Escherichia coli [27] = experiment: Antibacterial activity against Escherichia coli ATCC 25922 assessed as reduction in bacterial growth after 24 hrs in presence of magnesium ion by CLSI based broth micro dilution method; format: functional
[28] = Cytotoxicity against human MDA-MB-231 cells assessed as viability at 3.125 ug/ml after 24 hrs by CCK8 assay relative to control; format: cell-based; details: at 3.125 µg/mL, read-out: Activity
Staphylococcus aureus [29] = experiment: Antibacterial activity against methicillin-resistant Staphylococcus aureus N315 assessed as reduction in bacterial growth after 24 hrs in presence of magnesium ion by CLSI based broth micro dilution method; format: functional
Staphylococcus aureus [30] = experiment: Antibacterial activity against methicillin-resistant Staphylococcus aureus N315 assessed as reduction in bacterial growth after 24 hrs by CLSI based broth micro dilution method; format: functional
Staphylococcus aureus [31] = experiment: Antibacterial activity against methicillin-resistant Staphylococcus aureus NCTC10442 assessed as reduction in bacterial growth after 24 hrs in presence of magnesium ion by CLSI based broth micro dilution method; format: functional
[32] = Cytotoxicity against mouse corneal fibroblast cells assessed as viability at 6.25 ug/ml after 24 hrs by CCK8 assay relative to control; format: cell-based; details: at 6.25 µg/mL, read-out: Activity
Staphylococcus aureus [33] = experiment: Antibacterial activity against Staphylococcus aureus ATCC 29213 assessed as reduction in bacterial growth after 24 hrs by CLSI based broth micro dilution method; format: functional
Staphylococcus aureus [34] = experiment: Antibacterial activity against Staphylococcus aureus ATCC 29213 infected in C57BL6 mouse assessed as reduction in bacterial burden at 6.56 mmol/L, administered topically at 2 hrs interval for 3 days relative to control; format: functional; set-up: scale not given: the % may be the effect or the level left; details: time 3 day
Staphylococcus aureus [35] = experiment: Antibacterial activity against methicillin-resistant Staphylococcus aureus N315 assessed as reduction in bacterial growth after 24 hrs in presence of sodium ion by CLSI based broth micro dilution method; format: functional
[36] = Cytotoxicity against mouse NCTC clone 929 cells assessed as viability at 3.125 ug/ml after 24 hrs by CCK8 assay relative to control; format: cell-based; details: at 3.125 µg/mL, read-out: Activity
[37] = Cytotoxicity against mouse corneal fibroblast cells assessed as viability at 3.125 ug/ml after 24 hrs by CCK8 assay relative to control; format: cell-based; details: at 3.125 µg/mL, read-out: Activity
Staphylococcus aureus [38] = experiment: Antibacterial activity against Staphylococcus aureus ATCC 29213 assessed as reduction in bacterial growth after 24 hrs in presence of potassium ion by CLSI based broth micro dilution method; format: functional
Staphylococcus aureus [39] = experiment: Bactericidal activity against Staphylococcus aureus ATCC 29213 assessed as reduction in bacterial load at MIC concentration preincubated for 120 mins followed by compound washout further subculturing and measured after 24 hrs by time-kill assay; format: functional; details: 2 h
Cell membrane [40] = experiment: Disruption of bacterial cell membrane in Staphylococcus aureus ATCC 29213 at 8 times of MIC measured for 2 hr by propidium iodide and SYTO9 dye based LIVE/DEAD bacterial viability assay
Cell membrane [41] = experiment: Disruption of bacterial cell membrane in methicillin-resistant Staphylococcus aureus NCTC10442 measured for 1 hr by SYTOX green staining based assay
[42] = Cytotoxicity against human MDA-MB-231 cells assessed as viability at 6.25 ug/ml after 24 hrs by CCK8 assay relative to control; format: cell-based; details: at 6.25 µg/mL, read-out: Activity
[43] = Cytotoxicity against mouse corneal fibroblast cells assessed as viability at 25 ug/ml after 24 hrs by CCK8 assay relative to control; format: cell-based; details: at 25 µg/mL, read-out: Activity

For CC(C)=CCOc1ccc(/C=C/C(=O)c2ccc(OCC=C(C)C)cc2OCC(=O)N[C@@H](CCCNC(=N)N)C(=O)N[C@@H](CCCNC(=N)N)C(N)=O)cc1, the MIC (Staphylococcus aureus [1]) was 1.56 µg/mL (≈ 2.05 µM), the Activity (Staphylococcus aureus [2]) was “Active” and the viability at 24 h, 12.5 ug/ml [3] was 84.8%. For the same molecule, the HC50 at 1 h [4] was 276 µg/mL, the viability at 24 h, 6.25 ug/ml [5] was 79% and the MIC (Staphylococcus aureus [6]) was 1.56 µg/mL. The “log(activity)” value (Staphylococcus aureus [7]) was 3.25, the viability at 24 h, 25 ug/ml [8] was 67.7% and the “log(activity)” value (Staphylococcus aureus [9]) was 4.34. The Activity (Cell membrane [10]) was “Dose-dependent effect”, the MIC (Staphylococcus aureus [11]) was 1.56 µg/mL and the MIC (Escherichia coli [12]) was 6.25 µg/mL. The viability at 24 h, 12.5 ug/ml [13] was 69.9%, the MIC (Staphylococcus aureus [14]) was 1.56 µg/mL and the MIC (Escherichia coli [15]) was 6.25 µg/mL (≈ 8.2 µM). The MIC (Staphylococcus aureus [16]) was 1.56 µg/mL, the MIC (Escherichia coli [17]) was 6.25 µg/mL and the MIC (Escherichia coli [18]) was 12.5 µg/mL. For the same molecule, the viability at 24 h, 25 ug/ml [19] was 55.2%, the “log(activity)” value (Staphylococcus aureus [20]) was 2.76 and the “log(activity)” value (Staphylococcus aureus [21]) was 3.75. The viability at 24 h, 12.5 ug/ml [22] was 64.2%, the MIC (Staphylococcus aureus [23]) was 1.56 µg/mL and the MIC (Staphylococcus aureus [24]) was 1.56 µg/mL. For the same molecule, the MIC (Staphylococcus aureus [25]) was 1.56 µg/mL, the MIC (Staphylococcus aureus [26]) was 1.56 µg/mL and the MIC (Escherichia coli [27]) was 6.25 µg/mL. The viability at 24 h, 3.125 ug/ml [28] was 95.6%, the MIC (Staphylococcus aureus [29]) was 1.56 µg/mL and the MIC (Staphylococcus aureus [30]) was 1.56 µg/mL (≈ 2.05 µM). The MIC (Staphylococcus aureus [31]) was 1.56 µg/mL, the viability at 24 h, 6.25 ug/ml [32] was 76.3% and the MIC (Staphylococcus aureus [33]) was 1.56 µg/mL (≈ 2.05 µM). For the same molecule, the Activity (Staphylococcus aureus [34]) was >99.99%, the MIC (Staphylococcus aureus [35]) was 1.56 µg/mL and the viability at 24 h, 3.125 ug/ml [36] was 82%. The viability at 24 h, 3.125 ug/ml [37] was 98%, the MIC (Staphylococcus aureus [38]) was 1.56 µg/mL and the “log(activity)” value (Staphylococcus aureus [39]) was 2.6. For the same molecule, the Activity (Cell membrane [40]) was “Active”, the Activity (Cell membrane [41]) was “Dose-dependent effect” and the viability at 24 h, 6.25 ug/ml [42] was 89.3%. For the same molecule, the viability at 24 h, 25 ug/ml [43] was 59.9%.
